In brackets after ≈: the same amount, converted by molar mass.
Key:
P. cepacia 23 = assay: MIC, agar plate dilution method; assay type: cell-based, Pseudomonas cepacia; conditions: for MIC: Burkholderia cepacia, P. cepacia 23, 10^6 CFU/ml, Sensitivity Disk Agar, read-out: Minimum Inhibitory Concentration
Protocol: (§1) The minimum inhibitory concentrations (MIC: μg/ml) of the compounds of the present invention against various microorganisms were measured by an agar plate dilution method (inoculum size: 10^6 CFU/ml) by using Sensitivity Disk Agar (Nissui) in comparison with Cefotaxime and Ceftazidime as comparative compounds.

P. maltophilia IID 1275 = assay: MIC, agar plate dilution method; assay type: cell-based, Pseudomonas maltophilia; conditions: Stenotrophomonas maltophilia, IID1275; P. maltophilia IID 1275; 10^6 CFU/ml; Sensitivity Disk Agar; read-out: Minimum Inhibitory Concentration
Protocol: as §1

P. aeruginosa AK109 = assay: MIC, agar plate dilution method; assay type: cell-based, Pseudomonas aeruginosa; conditions: for MIC: Pseudomonas aeruginosa, P. aeruginosa AK109, 10^6 CFU/ml, Sensitivity Disk Agar, read-out: Minimum Inhibitory Concentration
Protocol: as §1

P. aeruginosa AKR17 = assay: MIC, agar plate dilution method; assay type: cell-based, Pseudomonas aeruginosa; conditions: for MIC: Pseudomonas aeruginosa, P. aeruginosa AKR17, 10^6 CFU/ml, Sensitivity Disk Agar, read-out: Minimum Inhibitory Concentration
Protocol: as §1

E. coli ML1410/Rte16 = assay: MIC, agar plate dilution method; assay type: cell-based; conditions: Escherichia coli, ML1410/RTE16, read-out: Minimum Inhibitory Concentration
Protocol: as §1

E. coli W3630/Rms213 = assay: MIC, agar plate dilution method; assay type: cell-based; conditions: Escherichia coli, W3630/RMS213, read-out: Minimum Inhibitory Concentration
Protocol: as §1

K. pneumoniae No. 42 = assay: MIC, agar plate dilution method; assay type: cell-based; conditions: Klebsiella pneumoniae; K. pneumoniae No. 42; 10^6 CFU/ml; Sensitivity Disk Agar; read-out: Minimum Inhibitory Concentration
Protocol: as §1

E. cloaceae Nek 39 = assay: MIC, agar plate dilution method; assay type: cell-based; conditions: E. cloaceae Nek 39; 10^6 CFU/ml; Sensitivity Disk Agar; read-out: Minimum Inhibitory Concentration
Protocol: as §1

P. mirabilis JY10 = assay: MIC, agar plate dilution method; assay type: cell-based; conditions: Proteus mirabilis; P. mirabilis JY10; 10^6 CFU/ml; Sensitivity Disk Agar; read-out: Minimum Inhibitory Concentration
Protocol: as §1

S. marcescens No. 16-2 = assay: MIC, agar plate dilution method; assay type: cell-based; conditions: Serratia marcescens, NO.162; S. marcescens No. 16-2; 10^6 CFU/ml; Sensitivity Disk Agar; read-out: Minimum Inhibitory Concentration
Protocol: as §1

E. coli NIHJJC-2 = assay: MIC, agar plate dilution method; assay type: cell-based; conditions: Escherichia coli, NIHJJC2; E. coli NIHJJC-2; 10^6 CFU/ml; Sensitivity Disk Agar; read-out: Minimum Inhibitory Concentration
Protocol: as §1

E. coli CSH = assay: MIC, agar plate dilution method; assay type: cell-based; conditions: Escherichia coli, read-out: Minimum Inhibitory Concentration
Protocol: as §1

S. aureus JS-1 = assay: MIC, agar plate dilution method; assay type: cell-based; conditions: Staphylococcus aureus, JS1; S. aureus JS-1; 10^6 CFU/ml; Sensitivity Disk Agar; read-out: Minimum Inhibitory Concentration
Protocol: as §1

C. freundii No. 7 = assay: MIC, agar plate dilution method; assay type: cell-based; conditions: Citrobacter freundii; C. freundii No. 7; 10^6 CFU/ml; Sensitivity Disk Agar; read-out: Minimum Inhibitory Concentration
Protocol: as §1

E. coli W3630/Rms212 = assay: MIC, agar plate dilution method; assay type: cell-based; conditions: Escherichia coli, W3630/RMS212, read-out: Minimum Inhibitory Concentration
Protocol: as §1

E. coli C/Rms149 = assay: MIC, agar plate dilution method; assay type: cell-based; conditions: Escherichia coli, read-out: Minimum Inhibitory Concentration
Protocol: as §1

A. calcoaceticus No. 14 = assay: MIC, agar plate dilution method; assay type: cell-based; conditions: Acinetobacter calcoaceticus; for MIC: A. calcoaceticus No. 14, 10^6 CFU/ml, Sensitivity Disk Agar, read-out: Minimum Inhibitory Concentration
Protocol: as §1

P. vulgaris OB1043 = assay: MIC, agar plate dilution method; assay type: cell-based; conditions: Proteus vulgaris; P. vulgaris OB1043; 10^6 CFU/ml; Sensitivity Disk Agar; read-out: Minimum Inhibitory Concentration
Protocol: as §1

P. vulgaris No. 33 = assay: MIC, agar plate dilution method; assay type: cell-based; conditions: Proteus vulgaris; P. vulgaris No. 33; 10^6 CFU/ml; Sensitivity Disk Agar; read-out: Minimum Inhibitory Concentration
Protocol: as §1

E. coli CSH2 = assay: MIC, agar plate dilution method; assay type: cell-based; conditions: Escherichia coli, 10^6 CFU/ml, Sensitivity Disk Agar, read-out: Minimum Inhibitory Concentration
Protocol: as §1

S. aureus NIHJJC-1 = assay: MIC, agar plate dilution method; assay type: cell-based; conditions: Staphylococcus aureus, NIHJJC1; S. aureus NIHJJC-1; 10^6 CFU/ml; Sensitivity Disk Agar; read-out: Minimum Inhibitory Concentration
Protocol: as §1

[1] = test system: Gram-positive bacteria and Gram-negative bacteria; assay: antibacterial activity, general statement; assay type: cell-based; conditions: sensitive and resistant bacteria
Protocol: as §1

| Compound | MIC (P. cepacia 23) | MIC (P. maltophilia IID 1275) | MIC (P. aeruginosa AK109) | MIC (P. aeruginosa AKR17) | MIC (E. coli ML1410/Rte16) | MIC (E. coli W3630/Rms213) | MIC (K. pneumoniae No. 42) | MIC (E. cloaceae Nek 39) | MIC (P. mirabilis JY10) | MIC (S. marcescens No. 16-2) | MIC (E. coli NIHJJC-2) | MIC (E. coli CSH) | MIC (S. aureus JS-1) | MIC (C. freundii No. 7) | MIC (E. coli W3630/Rms212) | MIC (E. coli C/Rms149) | MIC (A. calcoaceticus No. 14) | MIC (P. vulgaris OB1043) | MIC (P. vulgaris No. 33) | MIC (E. coli CSH2) | other results |
| --- | --- | --- | --- | --- | --- | --- | --- | --- | --- | --- | --- | --- | --- | --- | --- | --- | --- | --- | --- | --- | --- |
| CO/N=C(\C(=O)NC1C(=O)N2C(C(=O)[O-])=C(C[N+]3(C)Cc4ccc(OC(C)=O)cc4C3)CSC12)c1csc(N)n1 (centres unmarked) [Ex. 1-F] | 6.25 µg/mL (≈ 10.7 µM) | > 25 µg/mL | 3.12 µg/mL (≈ 5.32 µM) | > 25 µg/mL | 0.1 µg/mL (≈ 0.17 µM) | 0.78 µg/mL (≈ 1.33 µM) | 0.2 µg/mL (≈ 0.341 µM) | 0.78 µg/mL (≈ 1.33 µM) | 0.39 µg/mL (≈ 0.665 µM) | 12.5 µg/mL (≈ 21.3 µM) | ≤ 0.05 µg/mL | 0.78 µg/mL (≈ 1.33 µM) | 6.25 µg/mL (≈ 10.7 µM) | 1.56 µg/mL (≈ 2.66 µM) | 0.2 µg/mL (≈ 0.341 µM) | 0.1 µg/mL (≈ 0.17 µM) | 25 µg/mL (≈ 42.6 µM) | 0.78 µg/mL (≈ 1.33 µM) | 0.1 µg/mL (≈ 0.17 µM) | ≤ 0.05 µg/mL | MIC (S. aureus NIHJJC-1): 0.39 µg/mL (≈ 0.665 µM) |
| CO/N=C(\C(=O)NC1C(=O)N2C(C(=O)[O-])=C(C[N+]3(C)Cc4ccc(O)cc4C3)CSC12)c1csc(N)n1 (centres unmarked) [Ex. 2-D, 7-[(Z)-2-(2-aminothiazol-4-yl)-2-methoxyiminoacetamido]-3-(5-hydroxy-2-methyl-2-isoindolinium)methyl-3-cephem-4-carboxylate] | 6.25 µg/mL (≈ 11.5 µM) | > 25 µg/mL | 3.12 µg/mL (≈ 5.73 µM) | > 25 µg/mL | 0.1 µg/mL (≈ 0.184 µM) | 0.78 µg/mL (≈ 1.43 µM) | 0.2 µg/mL (≈ 0.367 µM) | 0.78 µg/mL (≈ 1.43 µM) | 0.39 µg/mL (≈ 0.716 µM) | 6.25 µg/mL (≈ 11.5 µM) | ≤ 0.05 µg/mL | 0.39 µg/mL (≈ 0.716 µM) | 6.25 µg/mL (≈ 11.5 µM) | 1.56 µg/mL (≈ 2.86 µM) | 0.2 µg/mL (≈ 0.367 µM) | 0.1 µg/mL (≈ 0.184 µM) | 25 µg/mL (≈ 45.9 µM) | 0.39 µg/mL (≈ 0.716 µM) | 0.1 µg/mL (≈ 0.184 µM) | ≤ 0.05 µg/mL | MIC (S. aureus NIHJJC-1): 0.39 µg/mL (≈ 0.716 µM) |
| CO/N=C(\C(=O)NC1C(=O)N2C(C(=O)[O-])=C(C[N+]3(C)Cc4cc(OC(C)=O)c(OC(C)=O)cc4C3)CSC12)c1csc(N)n1 (centres unmarked) [Ex. 3-D] | 0.39 µg/mL (≈ 0.605 µM) | 25 µg/mL (≈ 38.8 µM) | 0.2 µg/mL (≈ 0.31 µM) | 0.78 µg/mL (≈ 1.21 µM) | 0.1 µg/mL (≈ 0.155 µM) | 0.78 µg/mL (≈ 1.21 µM) | 0.2 µg/mL (≈ 0.31 µM) | ≤ 0.05 µg/mL | 0.39 µg/mL (≈ 0.605 µM) | 6.25 µg/mL (≈ 9.69 µM) | ≤ 0.05 µg/mL | 1.56 µg/mL (≈ 2.42 µM) | 25 µg/mL (≈ 38.8 µM) | 6.25 µg/mL (≈ 9.69 µM) | ≤ 0.05 µg/mL | 0.1 µg/mL (≈ 0.155 µM) | 0.2 µg/mL (≈ 0.31 µM) | 3.12 µg/mL (≈ 4.84 µM) | 0.2 µg/mL (≈ 0.31 µM) | 0.2 µg/mL (≈ 0.31 µM) | antibacterial activity relative to the compound of Reference Example (P. cepacia 23; Pseudomonas cepacia 23): at least 32 times; antibacterial activity relative to the compound of Reference Example (P. aeruginosa AK109; Pseudomonas aeruginosa AK109): at least 16 times; antibacterial activity relative to the compound of Reference Example (P. aeruginosa AKR17; Pseudomonas aeruginosa AKR-17, resistant to all cephalosporins including Ceftazidime): at least 32 times; antibacterial activity relative to the compound of Reference Example (A. calcoaceticus No. 14): at least 32 times; MIC (S. aureus NIHJJC-1): 6.25 µg/mL (≈ 9.69 µM); antibacterial activity (in words) [1]: particularly strong antibacterial activities |
